The source of these data is ChEMBL document CHEMBL1201862, “PubChem BioAssay data set” (2004).

Some targets named below: Cytochrome P450 2D6 (Homo sapiens, UniProt P10635); Cytochrome P450 3A4 (Homo sapiens, UniProt P08684); Cytochrome P450 2C9 (Homo sapiens, UniProt P11712).
In test [1] the target is Voltage-gated inwardly rectifying potassium channel KCNH2 (Homo sapiens, UniProt Q12809). To be noted: Potency.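 Note: confirmatory quantitative high-throughput screen measuring inhibition of hERG channel activity.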
In the next test the target is Cytochrome P450 2C19 (Homo sapiens, UniProt P33261). Put plainly: Cytochrome panel assay with activity outcomes. Panel member name: p450-cyp2c19 Compounds with AC50 equal or less than 10 uM are considered active. Format: functional. As to conditions: read-out: AC50.
Test [2] concerns the target T1, High affinity choline transporter 1 (Homo sapiens, UniProt Q9GZV3).
T1 sequence (Q9GZV3 whole entry): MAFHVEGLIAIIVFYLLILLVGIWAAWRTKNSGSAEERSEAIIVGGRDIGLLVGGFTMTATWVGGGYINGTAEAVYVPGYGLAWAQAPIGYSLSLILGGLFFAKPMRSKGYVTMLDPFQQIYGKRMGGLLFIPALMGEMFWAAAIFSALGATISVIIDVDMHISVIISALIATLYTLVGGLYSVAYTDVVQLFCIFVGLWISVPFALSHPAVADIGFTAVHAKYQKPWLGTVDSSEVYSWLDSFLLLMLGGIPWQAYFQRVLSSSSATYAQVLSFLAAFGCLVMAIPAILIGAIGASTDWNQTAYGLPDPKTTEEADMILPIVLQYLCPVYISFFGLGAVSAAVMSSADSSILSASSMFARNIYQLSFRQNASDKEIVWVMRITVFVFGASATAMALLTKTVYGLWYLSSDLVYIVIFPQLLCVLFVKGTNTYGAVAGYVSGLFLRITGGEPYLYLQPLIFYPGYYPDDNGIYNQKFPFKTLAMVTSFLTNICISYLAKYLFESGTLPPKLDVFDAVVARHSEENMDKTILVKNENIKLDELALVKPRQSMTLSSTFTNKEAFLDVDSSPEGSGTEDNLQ
As to the kind of experiment: human choline transporter blockers, potency – cell-based, 5-point CRC, membrane potential dye, dose response (AID 504840). Format: functional.

The target of another test is T2, Cytochrome P450 1A2 (Homo sapiens, UniProt P05177).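 Note: PubChem cytochrome P450 panel assay, CYP1A2 panel member.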
T2 sequence (P05177 whole entry): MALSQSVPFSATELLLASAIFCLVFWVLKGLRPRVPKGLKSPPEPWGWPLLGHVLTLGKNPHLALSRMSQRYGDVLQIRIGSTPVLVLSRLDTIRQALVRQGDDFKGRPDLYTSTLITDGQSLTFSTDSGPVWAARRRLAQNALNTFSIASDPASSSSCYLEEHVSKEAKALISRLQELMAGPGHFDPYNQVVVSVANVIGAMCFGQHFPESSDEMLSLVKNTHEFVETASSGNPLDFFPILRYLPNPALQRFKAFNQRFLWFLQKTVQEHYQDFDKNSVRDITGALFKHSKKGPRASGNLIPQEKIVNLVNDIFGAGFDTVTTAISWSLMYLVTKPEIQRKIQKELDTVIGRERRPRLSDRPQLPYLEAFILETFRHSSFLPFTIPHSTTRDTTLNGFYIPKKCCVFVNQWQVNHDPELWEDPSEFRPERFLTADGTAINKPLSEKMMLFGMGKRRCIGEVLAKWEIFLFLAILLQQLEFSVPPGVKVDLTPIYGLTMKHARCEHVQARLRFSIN

Test [3] concerns the target Dual specificity tyrosine-phosphorylation-regulated kinase 1A (Rattus norvegicus, UniProt Q63470). In kind it is biochemical, Homo sapiens.
The next test deals with T3, Aminopeptidase N (Plasmodium falciparum FcB1/Columbia, UniProt O96935).
T3 sequence (O96935 whole entry): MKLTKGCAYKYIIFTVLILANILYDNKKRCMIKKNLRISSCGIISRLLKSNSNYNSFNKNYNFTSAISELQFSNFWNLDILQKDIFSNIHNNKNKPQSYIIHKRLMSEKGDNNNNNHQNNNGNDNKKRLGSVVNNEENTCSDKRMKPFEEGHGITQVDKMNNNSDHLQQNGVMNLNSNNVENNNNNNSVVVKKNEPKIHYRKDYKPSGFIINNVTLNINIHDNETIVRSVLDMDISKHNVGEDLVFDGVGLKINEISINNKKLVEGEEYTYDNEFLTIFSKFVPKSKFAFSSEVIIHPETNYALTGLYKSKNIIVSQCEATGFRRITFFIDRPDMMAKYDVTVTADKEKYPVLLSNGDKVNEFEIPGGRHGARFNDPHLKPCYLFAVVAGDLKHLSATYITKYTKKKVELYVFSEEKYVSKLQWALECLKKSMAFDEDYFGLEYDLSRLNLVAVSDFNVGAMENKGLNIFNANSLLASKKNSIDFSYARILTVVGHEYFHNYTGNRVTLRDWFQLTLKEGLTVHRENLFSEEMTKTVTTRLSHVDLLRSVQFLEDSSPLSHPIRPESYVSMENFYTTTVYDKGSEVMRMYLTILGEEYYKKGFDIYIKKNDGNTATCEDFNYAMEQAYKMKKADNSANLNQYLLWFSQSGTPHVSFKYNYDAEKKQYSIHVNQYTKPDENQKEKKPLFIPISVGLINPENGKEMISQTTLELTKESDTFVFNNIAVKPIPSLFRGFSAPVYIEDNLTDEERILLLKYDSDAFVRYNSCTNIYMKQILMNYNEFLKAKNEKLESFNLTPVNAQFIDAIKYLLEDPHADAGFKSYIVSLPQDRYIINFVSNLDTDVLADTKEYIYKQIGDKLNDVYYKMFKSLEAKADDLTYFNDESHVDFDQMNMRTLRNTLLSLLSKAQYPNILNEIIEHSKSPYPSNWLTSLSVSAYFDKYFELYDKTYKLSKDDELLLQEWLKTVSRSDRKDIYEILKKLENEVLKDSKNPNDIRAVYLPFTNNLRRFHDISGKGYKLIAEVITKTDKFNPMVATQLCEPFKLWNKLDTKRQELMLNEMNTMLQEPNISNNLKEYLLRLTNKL
Put plainly: malaria alanyl aminopeptidase activity blockers – biochemical, fluorogenic H-Leu-NHMec substrate, 1536-well (AID 1445). Further details: species or system Plasmodium falciparum 3D7, 3D7.

The target in test [4] is T4, Heat shock factor protein 1 (Mus musculus, UniProt P38532).
T4 sequence (P38532 whole entry): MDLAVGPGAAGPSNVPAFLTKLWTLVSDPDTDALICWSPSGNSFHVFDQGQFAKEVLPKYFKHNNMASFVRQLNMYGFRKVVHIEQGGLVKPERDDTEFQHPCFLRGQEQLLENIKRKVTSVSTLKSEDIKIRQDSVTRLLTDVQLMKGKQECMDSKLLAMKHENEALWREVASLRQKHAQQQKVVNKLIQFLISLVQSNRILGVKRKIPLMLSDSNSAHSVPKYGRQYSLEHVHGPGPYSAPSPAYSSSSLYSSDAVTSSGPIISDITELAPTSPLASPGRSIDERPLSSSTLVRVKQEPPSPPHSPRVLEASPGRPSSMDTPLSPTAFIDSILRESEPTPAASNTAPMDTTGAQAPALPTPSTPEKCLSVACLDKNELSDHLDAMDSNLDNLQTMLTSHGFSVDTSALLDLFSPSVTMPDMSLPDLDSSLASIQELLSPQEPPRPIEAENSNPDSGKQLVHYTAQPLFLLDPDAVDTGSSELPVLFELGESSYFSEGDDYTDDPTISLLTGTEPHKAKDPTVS
Put plainly: decrease of HSF1-responsive luciferase luminescence – cell-based, NIH3T3, dose retest, confirmation (AID 2382).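 Note: NIH3T3 fibroblasts with HSF1-driven luciferase reporter stressed by proteasome inhibitor MG132; luminescence from HSF1-driven luciferase expression after 8 hours of MG132 stress.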 In kind it is functional.

The next test deals with Escherichia coli. Put plainly: microbe, parasite or virus in culture.
Test [5] addresses T5, Replicative DNA helicase DnaB (Mycobacterium tuberculosis, UniProt P9WMR3).
T5 sequence (P9WMR3 whole entry): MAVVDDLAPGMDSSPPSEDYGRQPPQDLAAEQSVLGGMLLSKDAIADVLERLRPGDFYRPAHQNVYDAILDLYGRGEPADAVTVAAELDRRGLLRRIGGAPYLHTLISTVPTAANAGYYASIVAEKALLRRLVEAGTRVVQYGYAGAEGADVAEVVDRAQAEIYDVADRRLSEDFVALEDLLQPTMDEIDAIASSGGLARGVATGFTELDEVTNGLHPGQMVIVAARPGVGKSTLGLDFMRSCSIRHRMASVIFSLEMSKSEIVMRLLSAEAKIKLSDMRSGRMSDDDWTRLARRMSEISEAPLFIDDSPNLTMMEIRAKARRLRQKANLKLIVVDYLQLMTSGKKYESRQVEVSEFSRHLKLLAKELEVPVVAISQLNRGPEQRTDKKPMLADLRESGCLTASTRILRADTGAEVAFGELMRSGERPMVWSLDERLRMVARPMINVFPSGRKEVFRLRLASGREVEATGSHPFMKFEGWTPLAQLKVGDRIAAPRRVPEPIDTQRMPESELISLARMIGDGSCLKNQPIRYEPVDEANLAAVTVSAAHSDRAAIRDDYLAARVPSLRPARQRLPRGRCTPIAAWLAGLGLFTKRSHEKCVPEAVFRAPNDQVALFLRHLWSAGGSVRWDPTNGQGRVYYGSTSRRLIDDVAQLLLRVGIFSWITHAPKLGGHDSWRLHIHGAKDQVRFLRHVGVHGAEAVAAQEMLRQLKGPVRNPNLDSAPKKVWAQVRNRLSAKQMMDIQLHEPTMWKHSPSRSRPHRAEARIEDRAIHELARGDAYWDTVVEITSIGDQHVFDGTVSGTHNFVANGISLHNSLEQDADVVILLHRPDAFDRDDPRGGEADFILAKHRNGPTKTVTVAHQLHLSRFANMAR
As to the kind of experiment: DnaB intein splicing inhibitors, dose response, biochemical, cell-free fluorescence (AID 449749). Format: functional.

Test [6] concerns Vero. Put plainly: cells. As to conditions: Chlorocebus sabaeus. Format: functional, cell-based.
A further test has as its target T6, Protein RecA (Mycobacterium tuberculosis, UniProt P9WHJ3).
T6 sequence (P9WHJ3 whole entry): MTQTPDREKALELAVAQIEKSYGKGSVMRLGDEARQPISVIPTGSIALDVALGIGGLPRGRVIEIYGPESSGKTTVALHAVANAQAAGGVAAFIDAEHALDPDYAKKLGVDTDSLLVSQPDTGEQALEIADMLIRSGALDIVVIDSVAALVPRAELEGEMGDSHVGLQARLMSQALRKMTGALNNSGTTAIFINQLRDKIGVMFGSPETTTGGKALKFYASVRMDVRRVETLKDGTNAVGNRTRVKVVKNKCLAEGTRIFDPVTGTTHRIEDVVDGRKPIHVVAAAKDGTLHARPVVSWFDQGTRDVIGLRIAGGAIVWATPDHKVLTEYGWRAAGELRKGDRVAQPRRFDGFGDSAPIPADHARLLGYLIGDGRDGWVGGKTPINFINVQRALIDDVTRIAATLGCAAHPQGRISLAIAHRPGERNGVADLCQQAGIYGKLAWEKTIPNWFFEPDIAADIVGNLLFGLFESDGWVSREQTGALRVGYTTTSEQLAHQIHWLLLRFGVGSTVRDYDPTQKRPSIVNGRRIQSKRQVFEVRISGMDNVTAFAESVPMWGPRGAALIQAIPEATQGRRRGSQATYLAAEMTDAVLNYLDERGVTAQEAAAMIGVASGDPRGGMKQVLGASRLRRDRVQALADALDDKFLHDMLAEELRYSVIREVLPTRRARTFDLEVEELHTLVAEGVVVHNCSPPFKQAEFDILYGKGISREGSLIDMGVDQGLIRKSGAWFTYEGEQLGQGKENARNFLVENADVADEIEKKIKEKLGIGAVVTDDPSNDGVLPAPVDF
As to the kind of experiment: Fluorescence Cell-Free Homogeneous Dose Retest to Identify Inhibitors of RecA-Intein Splicing Activity. [Related pubchem assays (depositor defined):AID2097, AID2223, AID489010, AID492950]. Format: functional.

The test system of test [7] is Vero. Put plainly: cells. Format: functional. As to conditions: Chlorocebus sabaeus.
The next test addresses Paired box protein Pax-8 (Homo sapiens, UniProt Q06710). As to the kind of experiment: PAX8 transcriptional activity inhibition in RMG-I – RMG-I cells, luciferase, cherry-pick, dose response (AID 687027).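 Note: luciferase reporter driven by Pax8 target thyroperoxidase promoter measured by SteadyGlo luminescence.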 In kind it is functional, cell-based.
Test [8] can be described thus: general cell-killing toxicity readout – plate reader, dry powder samples, cytotoxicity control for PAX8 inhibitor project, dose response (AID 743021). In kind it is functional, cell-based.

Structures are written as SMILES. Calls of active or inactive are those of the source. Where only a bound is given, the exact number is not on record here.

Sequence of Voltage-gated inwardly rectifying potassium channel KCNH2 (Q12809 whole entry): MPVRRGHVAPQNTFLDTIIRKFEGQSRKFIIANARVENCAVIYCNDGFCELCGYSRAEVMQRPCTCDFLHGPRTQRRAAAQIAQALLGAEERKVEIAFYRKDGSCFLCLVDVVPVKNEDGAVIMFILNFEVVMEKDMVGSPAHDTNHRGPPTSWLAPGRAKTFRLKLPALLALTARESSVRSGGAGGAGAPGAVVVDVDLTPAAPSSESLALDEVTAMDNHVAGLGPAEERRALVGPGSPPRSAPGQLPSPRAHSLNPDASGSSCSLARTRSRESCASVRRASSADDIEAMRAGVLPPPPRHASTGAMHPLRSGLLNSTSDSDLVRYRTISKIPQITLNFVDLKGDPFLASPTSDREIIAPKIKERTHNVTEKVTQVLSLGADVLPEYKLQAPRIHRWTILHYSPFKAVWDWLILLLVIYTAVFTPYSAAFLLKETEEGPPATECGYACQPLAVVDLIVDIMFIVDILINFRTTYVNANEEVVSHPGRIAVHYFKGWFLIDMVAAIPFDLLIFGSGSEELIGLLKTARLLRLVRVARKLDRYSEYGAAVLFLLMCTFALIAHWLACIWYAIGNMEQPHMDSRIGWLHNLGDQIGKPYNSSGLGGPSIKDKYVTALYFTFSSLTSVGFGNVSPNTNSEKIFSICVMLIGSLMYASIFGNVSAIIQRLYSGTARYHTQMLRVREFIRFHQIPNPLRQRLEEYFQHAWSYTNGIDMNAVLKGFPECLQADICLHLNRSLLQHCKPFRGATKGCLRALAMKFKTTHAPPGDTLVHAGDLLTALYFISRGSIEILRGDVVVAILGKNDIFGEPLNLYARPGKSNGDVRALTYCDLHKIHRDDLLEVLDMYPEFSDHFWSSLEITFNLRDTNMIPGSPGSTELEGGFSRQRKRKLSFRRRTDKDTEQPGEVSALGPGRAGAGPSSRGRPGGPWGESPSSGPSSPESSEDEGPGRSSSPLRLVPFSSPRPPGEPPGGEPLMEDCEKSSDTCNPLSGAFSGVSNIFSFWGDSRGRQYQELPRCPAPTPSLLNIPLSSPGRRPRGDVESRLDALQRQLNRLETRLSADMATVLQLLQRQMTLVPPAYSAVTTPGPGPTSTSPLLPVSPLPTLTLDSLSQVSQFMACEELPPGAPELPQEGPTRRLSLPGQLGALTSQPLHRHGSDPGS
Sequence of Cytochrome P450 2D6 (P10635 whole entry): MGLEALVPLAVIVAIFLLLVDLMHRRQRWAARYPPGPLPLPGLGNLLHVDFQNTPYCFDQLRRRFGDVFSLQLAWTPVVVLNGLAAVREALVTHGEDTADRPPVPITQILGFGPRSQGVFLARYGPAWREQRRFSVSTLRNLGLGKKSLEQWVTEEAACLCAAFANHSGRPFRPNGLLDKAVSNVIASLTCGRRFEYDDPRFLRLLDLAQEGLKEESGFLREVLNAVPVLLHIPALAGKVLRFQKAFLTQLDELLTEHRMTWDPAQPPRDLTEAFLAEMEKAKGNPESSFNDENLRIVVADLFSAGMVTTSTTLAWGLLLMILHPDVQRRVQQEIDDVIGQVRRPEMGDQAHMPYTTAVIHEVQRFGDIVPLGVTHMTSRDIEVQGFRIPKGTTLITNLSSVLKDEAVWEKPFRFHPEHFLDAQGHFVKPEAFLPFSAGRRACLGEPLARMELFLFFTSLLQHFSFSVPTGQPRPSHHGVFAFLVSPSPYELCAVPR
Sequence of Cytochrome P450 2C9 (P11712 whole entry): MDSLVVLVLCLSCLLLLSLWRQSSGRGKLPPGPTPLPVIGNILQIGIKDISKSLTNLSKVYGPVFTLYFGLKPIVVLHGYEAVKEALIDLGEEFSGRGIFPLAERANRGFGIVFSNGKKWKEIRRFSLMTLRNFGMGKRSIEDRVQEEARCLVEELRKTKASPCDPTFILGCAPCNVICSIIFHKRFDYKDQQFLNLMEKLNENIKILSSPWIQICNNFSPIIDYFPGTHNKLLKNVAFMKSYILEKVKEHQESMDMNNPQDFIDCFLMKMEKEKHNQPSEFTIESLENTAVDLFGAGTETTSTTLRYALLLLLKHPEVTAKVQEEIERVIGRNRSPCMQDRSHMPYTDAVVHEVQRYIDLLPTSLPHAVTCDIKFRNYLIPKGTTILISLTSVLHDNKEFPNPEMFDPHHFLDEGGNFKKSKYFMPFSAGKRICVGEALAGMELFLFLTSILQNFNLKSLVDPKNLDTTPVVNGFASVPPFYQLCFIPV
Sequence of Cytochrome P450 3A4 (P08684 whole entry): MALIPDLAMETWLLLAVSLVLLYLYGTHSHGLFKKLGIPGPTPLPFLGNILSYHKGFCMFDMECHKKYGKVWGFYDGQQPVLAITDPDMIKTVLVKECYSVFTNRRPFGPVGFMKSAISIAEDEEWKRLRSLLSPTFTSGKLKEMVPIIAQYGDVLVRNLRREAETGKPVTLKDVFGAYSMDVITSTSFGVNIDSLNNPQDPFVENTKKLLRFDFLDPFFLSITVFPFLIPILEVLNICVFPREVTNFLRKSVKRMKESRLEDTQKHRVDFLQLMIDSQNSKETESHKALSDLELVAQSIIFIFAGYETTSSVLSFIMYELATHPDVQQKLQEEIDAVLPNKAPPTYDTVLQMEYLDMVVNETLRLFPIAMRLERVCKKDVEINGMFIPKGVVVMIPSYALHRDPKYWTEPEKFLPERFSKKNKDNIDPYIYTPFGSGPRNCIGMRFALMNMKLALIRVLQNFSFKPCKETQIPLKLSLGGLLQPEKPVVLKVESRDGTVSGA
Sequence of Cytochrome P450 2C19 (P33261 whole entry): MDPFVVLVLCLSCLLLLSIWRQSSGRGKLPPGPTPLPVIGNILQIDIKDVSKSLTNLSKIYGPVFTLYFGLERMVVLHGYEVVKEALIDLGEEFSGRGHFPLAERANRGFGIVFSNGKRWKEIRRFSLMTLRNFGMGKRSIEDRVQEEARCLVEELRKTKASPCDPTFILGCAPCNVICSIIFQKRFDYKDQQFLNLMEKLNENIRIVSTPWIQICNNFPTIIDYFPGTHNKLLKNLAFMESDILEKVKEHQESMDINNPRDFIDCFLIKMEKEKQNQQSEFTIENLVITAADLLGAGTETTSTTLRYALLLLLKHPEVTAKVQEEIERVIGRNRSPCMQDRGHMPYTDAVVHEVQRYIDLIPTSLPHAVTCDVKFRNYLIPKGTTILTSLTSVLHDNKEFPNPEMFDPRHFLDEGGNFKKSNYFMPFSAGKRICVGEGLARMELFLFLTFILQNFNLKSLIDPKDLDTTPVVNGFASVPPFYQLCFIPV
Sequence of Paired box protein Pax-8 (Q06710 whole entry): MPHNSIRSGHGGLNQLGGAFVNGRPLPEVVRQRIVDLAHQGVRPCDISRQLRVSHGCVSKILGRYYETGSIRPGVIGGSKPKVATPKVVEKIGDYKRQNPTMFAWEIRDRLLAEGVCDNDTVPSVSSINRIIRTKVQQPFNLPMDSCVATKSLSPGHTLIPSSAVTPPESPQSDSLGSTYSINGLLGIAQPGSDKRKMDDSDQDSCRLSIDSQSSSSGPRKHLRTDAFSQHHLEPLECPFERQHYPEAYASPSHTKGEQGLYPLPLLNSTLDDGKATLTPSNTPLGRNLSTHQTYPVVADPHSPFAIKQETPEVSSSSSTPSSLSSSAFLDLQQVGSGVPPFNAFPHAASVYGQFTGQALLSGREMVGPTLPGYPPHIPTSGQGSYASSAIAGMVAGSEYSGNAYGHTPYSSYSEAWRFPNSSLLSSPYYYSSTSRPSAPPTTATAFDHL

With `OCc1c[nH]cn1`, in test [1], the AC50 (usually the midpoint of the concentration-response curve, whichever way the signal moves) is 1.78 µM (inconclusive).
Consider `CCCCn1nc2cc(C(=O)NC3CCCc4ccccc43)ccc2c1OCC` (stereo not drawn), for which the AC50 is 39.8 µM (inconclusive) at Cytochrome P450 2C19; 22.4 µM (inconclusive) on Cytochrome P450 2D6; 39.8 µM (inconclusive) on Cytochrome P450 1A2; 35.5 µM (inconclusive) on Cytochrome P450 3A4; 22.4 µM (inconclusive) at Cytochrome P450 2C9. Also, the IC50 (as a rule, the midpoint of a concentration-inhibition curve) in [2] is 12.9 µM (active).
`CCCC(=O)Nc1nc(-c2ccc3c(c2)OCCO3)cs1`: the AC50 in test [3] was 8.75 µM (active).
Regarding `Cc1cc(-c2ccc(C(=O)O)s2)cnc1N`, the IC50 at Aminopeptidase N is 58.9 µM (active). Besides, in [3], the AC50 is 4.79 µM (active).
In the case of `CC(C)OC(=O)Cn1c(=O)oc2ccccc21`, in test [4], the EC50 (commonly the concentration needed to bring the measured effect to its halfway point) is listed as > 195 µM (not active). The AC50 in the test with Escherichia coli was 21.8 µM (active).
Consider `Cc1cccc(N(Cc2cc(O)nc3ccccc23)C(=O)CCl)c1`, for which the AC50 in test [5] is 10.5 µM (active); on Paired box protein Pax-8 it was 3.93 µM (active); in test [8] it was 24.9 µM (active). Also, the IC50 in the test on Vero [6] was > 25 µM (active). Besides, the EC50 on Protein RecA was 1.67 µM (active). The CC50 (in general, the concentration that lowers cell viability or growth by half) in the test with Vero [7] was 5.83 µM (active).
With `CC(Oc1cccnc1[N+](=O)[O-])C(=O)N1CCc2ccccc21` (stereo not drawn), the AC50 with Escherichia coli was 22.2 µM (active).
On the same count and under the same terms, for `CC(=O)Nc1ccc(NS(=O)(=O)c2ccc3ccccc3c2)cc1` the value was 27.4 µM (active).
Turning to `COc1cc(N)c(Cl)cc1C(=O)OCCN1CCCCC1`, the half-maximal activity concentration (AC50) in test [1] was 25.1 µM (inconclusive).
For `O=C(O)c1cc(/N=C/c2c(O)oc3ccccc3c2=O)ccc1O`, the AC50 in test [3] was 32.5 µM (active).
In the case of `CC(C)c1ccccc1` [ISOPROPYLBENZENE], in test [1], the AC50 is 1.58 µM (inconclusive).
